Measurements from patent US12016858B2, “Methods for the treatment of abnormal involuntary movement disorders” (AUSPEX PHARMACEUTICALS, INC., priority 2015, dated 2024).
Where two headings read alike, the source gives them in different places.

Assays:
[1] = system: cardiac repolarization (QTcF interval); experiment: TQT study, six-period crossover, placebo- and positive-controlled; assay type: in vivo, healthy volunteers; conditions: for Maximum Placebo-Adjusted Change from Baseline in QTcF: fed
Protocol: Study Design. Given the known risk for tetrabenazine to increase the QT interval, a TQT study of deutetrabenazine, which included tetrabenazine as a treatment arm, was conducted in 48 healthy volunteers. This was a single-center, randomized, double-blind, placebo- and positive-controlled six-period crossover study to evaluate the effects of low-dose (12 mg) and high-dose (24 mg) deutetrabenazine on cardiac repolarization, based on placebo-corrected, time-matched changes from baseline in the QTcF interval. Assay sensitivity was established by using moxifloxacin 400 mg as the positive control.
The key outcome measure was to determine the effect of single doses of deutetrabenazine on the QTc interval.
In the table above, ΔΔQTcF is defined as the difference between the least squares mean change from baseline for the active drug and placebo. deutetrabenazine was compared with deutetrabenazine placebo (administered under fed conditions) and tetrabenazine was compared with tetrabenazine placebo (administered under fasted conditions). […] The upper limit of the 95% one-sided confidence interval is the upper limit of the 90% 2-sided confidence interval.

[2] = system: subjects with chorea associated with HD
Protocol: First-HD was a randomized, double-blind, placebo-controlled, parallel-group study designed to evaluate the efficacy, safety, and tolerability of deutetrabenazine in subjects with chorea associated with HD. This trial was conducted in the United States and Canada, in collaboration with the Huntington Study Group.
Subjects in First-HD were treated with deutetrabenazine or placebo, starting at 6 mg once per day and titrating weekly to doses of up to 24 mg twice per day (48 mg total maximum daily dose). A total of 90 subjects (45 in each group) were enrolled for evaluation over 13 weeks. Subjects were individually titrated to an optimal dose over up to eight weeks, received maintenance therapy at the optimal dose for four weeks, and were taken off study medication in the final week of the trial.
The primary efficacy endpoint for the study was the change from baseline to maintenance therapy (average of Week 9 and Week 12 values) in the maximal chorea score of the UHDRS. The total maximal score, or TMC, is a clinician-based, quantitative assessment of chorea in seven body regions: face, mouth/tongue, trunk, and the four extremities, with higher scores representing more severe chorea.
The total motor score (TMS) of the UHDRS was prespecified as an additional efficacy endpoint in First-HD. The TMS assesses all the motor features of HD, including items addressing characteristic motor abnormalities other than chorea, such as dystonia, gait, parkinsonism, and postural instability.
The clinical relevance of the change in the TMC score was assessed with four prespecified secondary endpoints that assessed changes from baseline to end of treatment (Week 12). These secondary endpoints were tested in a hierarchical manner: • 1. Treatment success based on patient global impression of change (PGIC); • 2. Treatment success based on clinical global impression of change (CGIC); • 3. Physical Functioning Scale of the SF-36; and • 4. Balance, as assessed by the Berg Balance Test (BBT).
The PGIC and CGIC are single-item questionnaires that ask the subject and investigator, respectively, to assess a subject's overall HD symptoms at specific visits after initiating therapy. Both assessments use a 7-point Likert Scale, with responses ranging from Very Much Worse (−3) to Very Much Improved (+3) to assess overall response to therapy.
Adverse events (AE) and their potential association with treatment were also monitored. Categories of AEs of particular focus included those known to be associated with tetrabenazine use: • Psychiatric disorders: insomnia, depression/agitated depression, abnormal dreams, agitation, anxiety, suicidal ideation, compulsions, impulsive behavior, and sleep disorders; • Nervous system disorders: somnolence, dizziness, akathisia/restlessness, cognitive disorders, drooling, dyskinesia, migraine, headache, loss of consciousness, and syncope (fainting); • General disorders: irritability, fatigue, gait disturbance, chest pain, and hangover; and • Gastrointestinal disorders: diarrhea, dry mouth, constipation, nausea, upper abdominal pain, dyspepsia, frequent bowel movements, gastrointestinal pain, vomiting, dysphagia, flatulence, and salivary hypersecretion.
In addition to AE reporting, rating scales were used to monitor for potential subclinical toxicity due to excessive monoamine depletion. […] These scales applied in First-HD included the Hospital Anxiety and Depression Scale (HADS), the Columbia Suicide Severity Rating Scale (C-SSRS), the Swallowing Disturbance Questionnaire (SDQ), the Unified Parkinson's Disease Rating Scale (dysarthria item) (UPDRS [dysarthria]), the Barnes Akathisia Rating Scale (BARS), and the Epworth Sleepiness Scale (ESS). In addition, the UHDRS, which includes cognitive, behavioral, and functional measures, was performed at key visits.

[3] = Phase 1 pharmacokinetic comparison of deutetrabenazine and tetrabenazine; assay type: in vivo, healthy volunteer subjects; conditions: 24-mg dose of deutetrabenazine
Description: The guidance for investigators on conversion of subjects from stable doses of tetrabenazine to deutetrabenazine in the ARC-HD Switch study was designed to minimize the risk that dose conversion would result in either loss of efficacy or increased adverse events. The conversion method applied was based on modeling and simulation of Phase 1 pharmacokinetic data for deutetrabenazine and tetrabenazine. The objective of the pharmacokinetic analysis was to identify an initial dosing regimen of deutetrabenazine predicted to provide exposure at steady state of the active α and β metabolites that was less than or equal to the predicted AUC at steady state of the active alpha and beta metabolites of tetrabenazine, but with a lower Cmax.
In a Phase 1 single-center, open-label, crossover clinical trial, each of 24 healthy volunteer subjects received single doses of 25 mg of tetrabenazine and 15 mg of deutetrabenazine. […]
Subjects in the Switch cohort completed a full screening evaluation. […] The investigator, in consultation with the subject and caregiver, determined when an adequate level of chorea control had been achieved. If a subject experienced a “clinically significant” adverse event attributable to deutetrabenazine, the investigator determined if a dose reduction or suspension was necessary.

[4] = Baseline to Maintenance Therapy, N = 45
[5] = baseline to maintenance therapy
[6] = much or very much improved, Week 12, N = 45

## [2H]C([2H])([2H])Oc1cc2c(cc1OC([2H])([2H])[2H])C1CC(=O)C(CC(C)C)CN1CC2 (stereo not drawn) [deutetrabenazine, (RR, SS)-1,3,4,6,7,11b-hexahydro-9,10-di(methoxy-d3)-3-(2-methylpropyl)-2H-benzo[a]quinolizin-2-one]
[1]; 12 mg single dose
  Maximum Placebo-Adjusted Change from Baseline in QTcF: 2.8 ms
[1]; 24 mg single dose
  Maximum Placebo-Adjusted Change from Baseline in QTcF: 4.5 ms
[1]; in vivo
  time point at which the maximal ΔΔQTcF was observed: 8 h
[2]; Baseline to Maintenance Therapy (mean of Week 9 and Week 12), N = 45
  Absolute Change in Total Maximal Chorea Score, Least Squares Mean (SD): −4.4 (3.0)
[2]; [4]
  Percentage Change in Total Maximal Chorea Score, Least Squares Mean (SD): −37 (25.7) %
  Total Motor Score change, Least Squares Mean (SD): −7.4 (6.3)
[2]; Baseline to Maintenance Therapy, listed as DTBZ
  Absolute Change in Total Maximal Chorea Score, Difference in Means (DTBZ − Placebo and 95% CI): −2.5 (−3.7, −1.3)
[2]; Baseline to Week 12
  Change in BBT Score, Difference in Means (DTBZ-Placebo): 1.0
  Change in SF-36 Physical Functioning Score, Difference in Means (DTBZ − Placebo) and 95% CI: 4.3
  SF-36 physical functioning score compared with placebo-treated subjects: greater improvement in physical function
[2]; Baseline to Week 12, N = 45
  Change in Berg Balance Test Score, Least Squares Mean: 2.2
  Change in SF-36 Physical Functioning Score, Least Squares Mean (SD): 0.74
[2]; Baseline to Week 12, N = 45, listed as DTBZ
  Change in SF-36 Physical Functioning Score, Least Squares Mean (SD): 0.74 (9.773)
[2]; Baseline to Week 12, listed as DTBZ
  Change in SF-36 Physical Functioning Score, Difference in Means (DTBZ − Placebo) and 95% CI: 4.34 (0.41, 8.27)
[2]; End of Therapy
  CGIC Treatment Success, Difference in Percentages (DTBZ − Placebo) and 95% CI: 29 (11.4, 46.4) %
  PGIC Treatment Success, Difference in Percentages (DTBZ − Placebo) and 95% CI: 31 (12.4, 49.8) %
[2]; N = 45
  Any Nervous System Disorders TEAE: 8 (17.8) n (%)
  Any Psychiatric Disorders TEAE: 8 (17.8) n (%)
  Any Serious TEAEs: 1 (2.2) n (%)
  Any TEAE that led to Withdrawal from the Study: 1 (2.2) n (%)
  Any TEAEs Resulting in Dose Reduction: 3 (6.7) n (%)
  Any TEAEs Resulting in Dose Suspension: 1 (2.2) n (%)
  Any Treatment-Emergent AEs (TEAEs): 60.0 n (%)
  TEAE Abdominal pain upper: 1 (2.2) n (%)
  TEAE Abnormal Dreams: 1 (2.2) n (%)
  TEAE Agitation: 1 (2.2) n (%)
  TEAE Akathisia/Restlessness: 1 (2.2) n (%)
  TEAE Anxiety: 1 (2.2) n (%)
  TEAE Chest pain: 1 (2.2) n (%)
  TEAE Cognitive Disorder: 1 (2.2) n (%)
  TEAE Compulsions: 0 n (%)
  TEAE Constipation: 2 (4.4) n (%)
  TEAE Depression/Agitated Depression: 2 (4.4) n (%)
  TEAE Diarrhea: 4 (8.9) n (%)
  TEAE Dizziness: 2 (4.4) n (%)
  TEAE Drooling: 1 (2.2) n (%)
  TEAE Dry mouth: 4 (8.9) n (%)
  TEAE Dyskinesia: 1 (2.2) n (%)
  TEAE Dyspepsia: 1 (2.2) n (%)
  TEAE Dysphagia: 0 n (%)
  TEAE Fatigue: 3 (6.7) n (%)
  TEAE Flatulence: 0 n (%)
  TEAE Frequent bowel movements: 1 (2.2) n (%)
  TEAE Gait disturbance: 1 (2.2) n (%)
  TEAE Gastrointestinal pain: 1 (2.2) n (%)
  TEAE Hangover: 1 (2.2) n (%)
  TEAE Headache: 0 n (%)
  TEAE Impulsive Behavior: 0 n (%)
  TEAE Insomnia: 3 (6.7) n (%)
  TEAE Irritability: 3 (6.7) n (%)
  TEAE Loss of Consciousness: 0 n (%)
  TEAE Migraine: 1 (2.2) n (%)
  TEAE Nausea: 1 (2.2) n (%)
  TEAE Salivary hypersecretion: 0 n (%)
  TEAE Sleep disorder: 0 n (%)
  TEAE Somnolence: 11.1 n (%)
  TEAE Suicidal Ideation: 1 (2.2) n (%)
  TEAE Syncope: 0 n (%)
  TEAE Vomiting: 0 n (%)
[2]; N = 45, listed as DTBZ
  Any Treatment-Emergent AEs (TEAEs): 27 (60.0) n (%)
  TEAE Somnolence: 5 (11.1) n (%)
[2]; [5]
  Absolute Change in Total Maximal Chorea Score, Difference in Means (DTBZ − Placebo and 95% CI): −2.5
  Percentage Change in Total Maximal Chorea Score, Difference in Means (DTBZ − Placebo and 95% CI): −21 (−30.5, −11.1) %
  TMC improved: 37%
  Total Motor Score change, Difference in Means (DTBZ − Placebo) and 95% CI: −4.0 (−6.5, −1.5)
  improvement in the TMS compared with placebo: 4.0 units
  reduction in maximal chorea compared with placebo: 21 percentage points
  reduction on the TMC score compared with placebo: 2.5 units
  total maximal dystonia score improvement: 0.9 (SE 0.24) points
[2]; difference did not achieve statistical significance
  UHDRS Behavioral Assessment (Part III) mean total behavior score compared with the placebo group: improvement in the in the mean total behavior score
[2]; in vivo
  AEs of parkinsonism or dysphagia: no AEs of parkinsonism or dysphagia were reported
  balance (Berg Balance Test) at end of treatment: did not worsen balance
  changes in the parkinsonism subscore (UHDRS motor) vs placebo: no significant difference
  hypotension, dizziness, or orthostasis (vital signs): no evidence that hypotension, dizziness, or orthostasis was associated
  parkinsonism subscore of the UHDRS Motor Assessment (Part I): did not identify evidence of parkinsonism
  safety scales (HADS, C-SSRS, UPDRS dysarthria, BARS, ESS): did not cause depression, anxiety, suicidality, akathisia, somnolence, or difficulty speaking
  somnolence, drug-placebo difference: 6.7%
  tolerability: generally well tolerated
[2]; [6]
  Clinical Global Impression of Change: Treatment Success at the End of Therapy: 42%
  Patient Global Impression of Change: Treatment Success at the End of Therapy: 51%
[2]; subjects with more severe chorea at baseline (TMC>12; n=49)
  SF-36 physical functioning mean improvement over placebo: 7.1 units
[3]
  peak concentration (Cmax) vs 50 mg of tetrabenazine: lower peak concentration (Cmax)
  systemic exposure (AUC): comparable systemic exposure (AUC) to 50 mg of tetrabenazine
